Here are results for 1 compound from publication PMC12536539, “Detumescence Analgesic Plaster mitigates knee osteoarthritis via active ingredients targeting mitochondrial complex 1/AMPK/MYL3-regulated cartilage homeostasis” (Chinese Medicine, 2025).

The experiment has as its target T1, NDUFA6.
T1 construct: SPR protein; species is a guess, rat possible
Kind of experiment: SPR, Biacore 8K, […] Langmuir kinetic fit. It is filed as binding. (In SPR one partner is held on a chip, and binding of the other changes the refractive index at the surface.)

Structures are written as SMILES.

In the case of `O=C(/C=C/c1ccc(O)c(O)c1)O[C@@H]1C[C@](OC(=O)/C=C/c2ccc(O)c(O)c2)(C(=O)O)C[C@@H](O)[C@H]1O` [1,5-dicaffeoylquinic acid], binding was put at a Kd of 735 nM.

One may read the Kd as the free concentration of one partner at which half of the binding sites on the other are occupied at equilibrium, for simple one-to-one binding.
